According to US6979471B1, “Composition comprising pharmaceutical/nutraceutical agent and a bio-enhancer obtained from Glycyrrhiza glabra” (Council of Scientific and Industrial Research, priority 2000, dated 2005):

How the values were obtained:
Assay type in all cases: cell-based
[1] = tested on: MCF-7 (Breast cancer cell line); experiment: Assay for bio-enhancement of anti-cancer agents: viable cell count after 36 hours; conditions: glycyrrhizin alone, without taxol; untreated control […] 10^−6
Protocol: (§1) For this, the cells are treated with the bioenhancer/compound for 4 to 8 hours and then washed free of it by centrifugation and washing in sterile water. […] 2. Assay for Bio-Enhancement of Anti-Cancer Agents • a) MCF-7 (Breast cancer cell line is inoculated at a density of about 0.1×10^6 cells in MEM medium in the wells of 24 well plate. • b) The used up medium in these cultures is replaced with fresh medium after 18 hours in each well. • c) The test compound (s) is added at desired concentrations in different wells just after the medium replacement. • d) Observations are recorded on the cell count after 36 hours for which the following steps are required. • i. The medium is removed from the wells. • ii. The wells are rinsed with 1 ml PBS (Phosphate buffer saline). • iii. To each well 500 μl of freshly prepared trypsin solution (0.1% in PBS) is added. • iv. Trypsin solution is removed after 30 seconds and the plate is gently tapped till the cells are released from the plate surface. • v. Fresh 1 ml of MEM growth medium is added and agitated with a pipette to obtain a cell suspension. • vi. 10 μl of cell suspension is taken on the haemocytometer and a cover glass is placed over the counting chamber. • vii. The number of viable cells is counted in 5 big squares and the reading is taken from 5 microscopic fields to determine the average. • viii. The cell count (titre per ml) in the original sample is then calculated as average count×10^3. Composition of Minimum Essential Medium (MEM): 100 ml

[2] = tested on: Escherichia coli, Bacillus subtilis and Mycobacterium smegmatis; experiment: Bacteria grown with glycyrrhizin alone; pretreatment assay
Protocol: For this, the cells are treated with the bioenhancer/compound for 4 to 8 hours and then washed free of it by centrifugation and washing in sterile water. […] The medium is removed from the wells. • ii. The wells are rinsed with 1 ml PBS (Phosphate buffer saline). • iii. To each well 500 μl of freshly prepared trypsin solution (0.1% in PBS) is added. • iv. Trypsin solution is removed after 30 seconds and the plate is gently tapped till the cells are released from the plate surface. • v. Fresh 1 ml of MEM growth medium is added and agitated with a pipette to obtain a cell suspension. • vi. 10 μl of cell suspension is taken on the haemocytometer and a cover glass is placed over the counting chamber. • vii. […] The cell count (titre per ml) in the original sample is then calculated as average count×10^3. Composition of Minimum Essential Medium (MEM): 100 ml In the next step of elucidation of the enhancer action the applicants experimented with the killing activities of different antibiotics against the bacteria singly and in combination with the test compound glycyrrhizin following the method described above. These experiments are to be considered with assay for bioenhancement of the compounds glycyrrhizin/glycyrrhizic acid and licorice, as described earlier. […]

[3] = tested on: Candida albicans (ATCC 10231); experiment: Disc diffusion assay, antifungal agent against Candida albicans; conditions: Candida albicans, ATCC10231; glycyrrhizin 1 μg/disc alone, clotrimazole 0
Protocol: (§2) • a) The minimum inhibitory concentration (MIC) of any antibiotic or drug molecule is determined against Escherichia coli (ATCC 10536), Bacillus subtilis (ATCC 6015) and Mycobacterium smegmatis (ATCC 14468) and Candida albicans (ATCC 10231) in broth and disc diffusion assays. • b) The antibiotics or antifungal agents at concentrations 1/10, ⅛, ⅙, ¼, ⅓, ½ and equal to MIC are added alone and in combination with the test compound at varying concentrations in broth assays to evaluate the comparative level of inhibition and similarly at varying concentrations in disc diffusion assay. • c) The combinations showing enhancement in terms of higher activity than antibiotic alone for the inhibition of bacterial growth (large inhibition zone in disc diffusion and higher killing at lower concentration in broth assay) are picked up for future testing. • d) In broth assays the activity is quantified by counting number of viable cells in a given treatment and converted in fold enhancement by the combination treatment compared to antibiotic/drug alone in the killing percentage of cells. • e) The pretreatment assay is followed to determine whether the bioenhancer which may be either an extract obtained from the plant Glycyrrhiza glabra, glycyrrhizin or glycyrrhizic acid, is required along with antibiotic to enhance its activity or even its withdrawal after treatment or prior to antibiotic treatment would benefit. […] Assay for Bio-Enhancement of Anti-Cancer Agents • a) MCF-7 (Breast cancer cell line is inoculated at a density of about 0.1×10^6 cells in MEM medium in the wells of 24 well plate. • b) The used up medium in these cultures is replaced with fresh medium after 18 hours in each well. • c) The test compound (s) is added at desired concentrations in different wells just after the medium replacement. • d) Observations are recorded on the cell count after 36 hours for which the following steps are required. • i. […] The number of viable cells is counted in 5 big squares and the reading is taken from 5 microscopic fields to determine the average. • viii. […]

[4] = tested on: Mycobacterium smegmatis (ATCC 14468); experiment: Broth assay for bio-enhancement of antibiotics: viable cell count, Mycobacterium smegmatis; conditions: Table 3
Protocol: as §1
In the next step of elucidation of the enhancer action the applicants experimented with the killing activities of different antibiotics against the bacteria singly and in combination with the test compound glycyrrhizin following the method described above. These experiments are to be considered with assay for bioenhancement of the compounds glycyrrhizin/glycyrrhizic acid and licorice, as described earlier. […] In all the experiments the glycyrrhizin concentration was kept at 1 μg/ml, unless it is specifically mentioned.

[5] = tested on: Escherichia coli (ATCC 10536); experiment: Broth assay for bio-enhancement of antibiotics: viable cell count, Escherichia coli
Escherichia coli = experiment: Disc diffusion assay against Escherichia coli
Protocol: as §2

Mycobacterium smegmatis = experiment: Disc diffusion assay against Mycobacterium smegmatis
Protocol: as §2

CC1(C)[C@@H](O[C@H]2O[C@H](C(=O)O)[C@@H](O)[C@H](O)[C@H]2O[C@@H]2O[C@H](C(=O)O)[C@@H](O)[C@H](O)[C@H]2O)CC[C@]2(C)[C@H]3C(=O)C=C4[C@@H]5C[C@@](C)(C(=O)O)CC[C@]5(C)CC[C@@]4(C)[C@]3(C)CC[C@@H]12 [Glycyrrhizin]
Final titre of viable cells, without taxol, control (glycyrrhizin) [1]: 0.12 × 10^−6 per ml | Enhancement of antibiotic potency after pretreatment of bacterial cells ([2]; cells pretreated with glycyrrhizin for 4–8 hours, washed free, then treated with antibiotics): the same results were observed | Killing of bacteria grown in presence of the compound as such ([2]; glycyrrhizin alone, no antibiotic): no significant killing | zone of inhibition at 1 µg/disc [3]: 0 mm

CO[C@H]1/C=C/O[C@@]2(C)Oc3c(C)c(O)c4c(O)c(c(/C=N/N5CCN(C)CC5)c(O)c4c3C2=O)NC(=O)/C(C)=C\C=C\[C@H](C)[C@H](O)[C@@H](C)[C@@H](O)[C@@H](C)[C@H](OC(C)=O)[C@@H]1C [Rifampicin]
Survival fraction of viable cells upon treatment with antibiotic alone (a) ([4]; antibiotic 0.5 μg/ml): 0.56 × 10^−4 | Survival fraction of viable cells upon treatment with antibiotic- glycyrrhizin combination (b) ([4]; antibiotic 0.5 μg/ml + glycyrrhizin 1 μg/ml): 0.086 × 10^−4 | *Folds enhancement in antibiotic activity (a/b) ([4]; antibiotic 0.5 μg/ml, glycyrrhizin 1 μg/ml): 6.5 folds | Survival fraction of viable cells upon treatment with antibiotic alone (a) ([5]; Table 1, antibiotic 10 μg/ml): 0.42 | Survival fraction of viable cells upon treatment with antibiotic- glycyrrhizin combination (b) ([5]; Table 1, antibiotic 10 μg/ml + glycyrrhizin 1 μg/ml): 0.11 | *Folds enhancement in antibiotic activity (a/b) ([5]; Table 1, antibiotic 10 μg/ml, glycyrrhizin 1 μg/ml): 3.8 folds | Survival fraction of viable cells upon treatment with antibiotic alone (a) ([5]; Table 1, antibiotic 20 μg/ml): 0.28 | Survival fraction of viable cells upon treatment with antibiotic- glycyrrhizin combination (b) ([5]; Table 1, antibiotic 20 μg/ml + glycyrrhizin 1 μg/ml): 0.02 | *Folds enhancement in antibiotic activity (a/b) ([5]; Table 1, antibiotic 20 μg/ml, glycyrrhizin 1 μg/ml): 14.0 folds | Survival fraction of viable cells upon treatment with antibiotic glycyrrhizic acid combination (b) ([5]; Table 7, antibiotic 20 μg/ml + glycyrrhizic acid): 0.281 | Survival fraction of viable cells upon treatment with antibiotic glycyrrhizic acid combination (b) ([5]; Table 7, antibiotic 20 μg/ml + glycyrrhizic acid, listed as rifampicin): about 0.281 | *Folds enhancement in antibiotic activity (a/b) ([5]; Table 7, antibiotic 20 μg/ml, glycyrrhizic acid): 2.03 folds | Survival fraction of viable cells upon treatment with antibiotic alone (a) ([5]; Table 10, antibiotic 10 μg/ml): 0.420 | Survival fraction of viable cells upon treatment with antibiotic glycyrrhizic acid combination (b) ([5]; Table 10, antibiotic 10 μg/ml + licorice 25 μg/ml): 0.135 | *Folds enhancement in antibiotic activity (a/b) ([5]; Table 10, antibiotic 10 μg/ml, licorice 25 μg/ml): 3.10 folds | zone of inhibition at 500 µg/disc (Escherichia coli; Escherichia coli, read-out: Net zone of inhibition): 2 mm | Net zone of inhibition (Escherichia coli; rifampicin 500 μg/disc + glycyrrhizic acid 4 μg/disc): 3 mm | zone of inhibition at 0.4 µg/disc (Mycobacterium smegmatis; Mycolicibacterium smegmatis, read-out: Net zone of inhibition): 3 mm | Net zone of inhibition (Mycobacterium smegmatis; rifampicin 0.4 μg/disc + glycyrrhizic acid 4 μg/disc): 4 mm
